# Laboratory results as given in ChEMBL document CHEMBL1135592, “Structural determinants of A(3) adenosine receptor activation: nucleoside ligands at the agonist/antagonist boundary” (J Med Chem, 2002).
# Experiments:
# [1] = molecular target: Adenosine receptor A3 (Homo sapiens, UniProt P0DMS8, W243A); test: Binding affinity towards Adenosine A3 receptor (W243 A mutant receptor)
# [2] = molecular target: T1, Adenosine receptor A3 (Homo sapiens, UniProt P0DMS8); test: Binding affinity towards human Adenosine A3 receptor wild type
# T1 sequence (P0DMS8 whole entry): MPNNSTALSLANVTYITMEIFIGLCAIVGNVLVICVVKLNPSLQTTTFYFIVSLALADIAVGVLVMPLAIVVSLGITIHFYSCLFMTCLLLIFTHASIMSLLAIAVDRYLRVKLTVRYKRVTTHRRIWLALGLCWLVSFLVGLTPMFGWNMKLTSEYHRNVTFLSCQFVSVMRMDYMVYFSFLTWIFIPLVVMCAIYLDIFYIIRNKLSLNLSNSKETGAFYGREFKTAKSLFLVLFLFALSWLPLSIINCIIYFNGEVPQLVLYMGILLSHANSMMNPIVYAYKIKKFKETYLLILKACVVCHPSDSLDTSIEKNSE
# [3] = molecular target: T1, Adenosine receptor A3; test: Affinity for human Adenosine A3 receptor expressed in CHO cell; type: cell-based
# [4] = molecular target: T1, Adenosine receptor A3; test: Effect on forskolin-stimulated cyclic AMP production in intact chinese hamster ovary (CHO) cell expressing the human Adenosine A3 receptor; type: functional
# [5] = molecular target: Adenosine receptor A3 (Homo sapiens, UniProt P0DMS8, H95A); test: Binding affinity towards Adenosine A3 receptor (H95A mutant receptor)
# Chain of Adenosine receptor A3 (Homo sapiens, UniProt P0DMS8, H95A) (P0DMS8 whole entry H95A): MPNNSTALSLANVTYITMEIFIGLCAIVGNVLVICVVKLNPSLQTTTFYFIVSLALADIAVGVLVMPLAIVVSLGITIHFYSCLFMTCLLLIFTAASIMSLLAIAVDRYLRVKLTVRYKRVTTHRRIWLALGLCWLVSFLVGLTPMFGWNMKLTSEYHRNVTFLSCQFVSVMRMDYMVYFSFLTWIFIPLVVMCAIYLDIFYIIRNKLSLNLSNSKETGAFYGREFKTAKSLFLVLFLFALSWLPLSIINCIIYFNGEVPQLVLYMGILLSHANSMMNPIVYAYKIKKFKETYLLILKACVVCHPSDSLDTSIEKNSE
# [6] = molecular target: T1, Adenosine receptor A3; test: biochemical
# Description: Binding affinity in membrane of CHO cell stably expressing recombinant human Adenosine A3 receptor in the presence of GTPgammaS using [3H]8-ethyl-4-methyl-2-phenyl-(8R)-4,5,7,8-tetrahydro-1H-imidazo[2,1-i]-purin-5-one as radioligand
# [7] = molecular target: Adenosine receptor A3 (Homo sapiens, UniProt P0DMS8); test: Binding affinity towards Adenosine A3 receptor (W243 mutant receptor)
# [8] = molecular target: T2, Adenosine receptor A3 (Rattus norvegicus, UniProt P28647); test: Binding affinity of adenosine derivative for recombinant rat Adenosine A3 receptor expressed on CHO cell
# T2 sequence (P28647 whole entry): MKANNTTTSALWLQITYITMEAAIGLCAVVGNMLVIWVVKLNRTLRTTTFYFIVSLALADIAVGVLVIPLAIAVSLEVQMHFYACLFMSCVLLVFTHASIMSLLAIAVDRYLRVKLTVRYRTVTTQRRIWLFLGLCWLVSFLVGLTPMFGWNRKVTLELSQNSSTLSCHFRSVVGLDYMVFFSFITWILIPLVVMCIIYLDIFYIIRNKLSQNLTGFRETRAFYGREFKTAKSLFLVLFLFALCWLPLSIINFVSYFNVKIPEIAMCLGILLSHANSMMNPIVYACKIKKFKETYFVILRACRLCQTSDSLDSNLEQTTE
# [9] = molecular target: T1, Adenosine receptor A3; test: biochemical; remark: listed apart in the source
# Description: Bnding affinity in membrane of CHO cell stably expressing recombinant human Adenosine A3 receptor using [3H]8-ethyl-4-methyl-2-phenyl-(8R)-4,5,7,8-tetrahydro-1H-imidazo[2,1-i]-purin-5-one as radioligand
# [10] = molecular target: T2, Adenosine receptor A3; test: Binding affinity of adenosine derivative for endogenous rat Adenosine A3 receptor of RBL-2H3
# [11] = molecular target: T1, Adenosine receptor A3; test: Affinity towards human Adenosine A3 receptor in CHO cell; type: cell-based
# Chain of Adenosine receptor A3 (Homo sapiens, UniProt P0DMS8, W243A) (P0DMS8 whole entry W243A): as the sequence (P0DMS8 whole entry H95A) above, with A95H, W243A counted along it
SMILES,Ki [1] [nM],Ki [2] [nM],Ki [3] [nM],EC50 [4] [nM],other results
Nc1nc(Cl)nc2c1ncn2C1C(O)C(O)C2(CO)CC12 (configuration not stated),46,83,,,
CNC(=O)C12CC1C(n1cnc3c(NC)nc(Cl)nc31)C(O)C2O (configuration not stated),,,3.4,1.4,
OCC12CC1C(n1cnc3c(NCc4cccc(I)c4)ncnc31)C(O)C2O (configuration not stated),2.7,3.9,9.2,,Ki [5]: 99 nM
CCCOC(=O)c1c(-c2ccccc2)nc(CC)c(C(=O)SCC)c1CCC,,238,,,Ki [7]: 2150 nM; Ki [8]: 234 nM; Ki [10]: 357 nM
Nc1nc(Cl)nc2c1ncn2[C@@H]1O[C@H](CO)[C@@H](O)[C@H]1O,,,87,1630,
O=C1NCC[C@@]12O[C@@H](n1cnc3c(NCc4cccc(I)c4)ncnc31)[C@H](O)[C@@H]2O,,,,,Ki [8]: 49 nM; Ki [10]: 51 nM
CCCCn1c(=O)c2c(ncn2[C@@H]2O[C@H](C(=O)NC)[C@@H](O)[C@H]2O)n(CCCC)c1=O,,,816,828,
OC[C@H]1O[C@@H](n2cnc3c(NC4CCCC4)ncnc32)[C@H](O)[C@@H]1O [N6-CYCLOPENTYLADENOSINE],137,142,,242,Ki [5]: 615 nM
OC[C@H]1O[C@@H](n2cnc3c(NCc4cccc(I)c4)nc(Cl)nc32)[C@H](O)[C@@H]1O,,,,,Ki [8]: 1.6 nM; Ki [10]: 2.7 nM
CNC(=O)[C@H]1O[C@@H](n2cnc3c(NCc4cccc(I)c4)nc(Cl)nc32)[C@@H]2O[C@@H]21,,,,,Ki [11]: 1100 nM
Nc1nc(F)nc2c1ncn2[C@@H]1O[C@H](CO)[C@@H](O)[C@H]1O,,,99,2660,

# Further lines, with some results ahead:
Ki [1] [nM],Ki [2] [nM],Ki [3] [nM],EC50 [4] [nM],SMILES,other results
,1.7,1.9,,OCC12CC1C(n1cnc3c(NCc4cccc(I)c4)nc(Cl)nc31)C(O)C2O (configuration not stated),Ki [5]: 460 nM; Ki [6]: 4 nM; Ki [7]: 1.3 nM; Ki [8]: 1.3 nM; Ki [9]: 2.7 nM; Ki [10]: 2.9 nM
1.2,2.1,1.3,5.4,CNC(=O)C12CC1C(n1cnc3c(NCc4cccc(I)c4)ncnc31)C(O)C2O (configuration not stated),
490,584,572,,OCC12CC1C(n1cnc3c(NCc4cccc(I)c4)nc(Cl)nc31)C1OC12 (configuration not stated),
